Data: ChEMBL document CHEMBL1135194, “Inhibition of Src kinase activity by 4-anilino-7-thienyl-3-quinolinecarbonitriles” (Bioorg Med Chem Lett, 2002)
pIC50: −log10 of the molar value.

These compounds were tested against Proto-oncogene tyrosine-protein kinase Src (Homo sapiens, UniProt P12931) (assay: Inhibition of Src kinase in enzymatic assay).
Chain of Proto-oncogene tyrosine-protein kinase Src (P12931 2-536 limits assumed): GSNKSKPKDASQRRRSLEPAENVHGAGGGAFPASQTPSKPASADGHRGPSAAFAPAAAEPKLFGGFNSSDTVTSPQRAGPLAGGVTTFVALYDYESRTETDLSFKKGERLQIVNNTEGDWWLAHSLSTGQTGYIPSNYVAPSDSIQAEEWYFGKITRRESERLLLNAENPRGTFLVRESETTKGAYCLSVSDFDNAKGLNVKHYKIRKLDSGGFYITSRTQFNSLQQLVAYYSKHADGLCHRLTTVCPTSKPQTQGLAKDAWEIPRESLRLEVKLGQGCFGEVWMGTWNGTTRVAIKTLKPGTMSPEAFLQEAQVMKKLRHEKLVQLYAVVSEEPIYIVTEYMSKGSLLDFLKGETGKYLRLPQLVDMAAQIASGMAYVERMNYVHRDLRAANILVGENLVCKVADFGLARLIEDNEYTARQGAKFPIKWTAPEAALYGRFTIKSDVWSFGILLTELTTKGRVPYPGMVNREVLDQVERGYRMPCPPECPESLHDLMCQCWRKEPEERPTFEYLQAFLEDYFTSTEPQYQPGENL

Row | Structure (SMILES) | pIC50
1 | COc1cc(Nc2c(C#N)cnc3cc(-c4ccsc4CN4CCOCC4)ccc23)c(Cl)cc1Cl | 6.36
2 | COc1cc(Nc2c(C#N)cnc3cc(-c4cc(CN5CCCCC5)cs4)ccc23)c(Cl)cc1Cl | 8.38
3 | COc1cc(Nc2c(C#N)cnc3cc(-c4cc(CN5CCOCC5)cs4)ccc23)c(Cl)cc1Cl | 8.24
4 | COc1cc(Nc2c(C#N)cnc3cc(-c4csc(CN5CCOCC5)c4)ccc23)c(Cl)cc1Cl | 8.57
5 | COc1cc(Nc2c(C#N)cnc3cc(-c4cscc4CN4CCOCC4)ccc23)c(Cl)cc1Cl | 6.62

The remaining compounds from weak to strong by pIC50, led by results:

Row | pIC50 | Structure (SMILES)
6 | 6.55 | COc1cc(Nc2c(C#N)cnc3ccc(-c4csc(CN5CCOCC5)c4)cc23)c(Cl)cc1Cl
7 | 8.60 | COc1cc(Nc2c(C#N)cnc3cc(-c4ccc(CN5CCOCC5)s4)ccc23)c(Cl)cc1Cl
8 | 8.85 | COc1cc(Nc2c(C#N)cnc3cc(-c4csc(CN5CCC(O)CC5)c4)ccc23)c(Cl)cc1Cl
